The record followed here is article PMC5077133, “Towards Development of Small Molecule Lipid II Inhibitors as Novel Antibiotics” (PLoS ONE, 2016).

Data set [1] deals with K. pneumoniae NR-15411 (KPC). Nature of the data set: Antibacterial activity (MIC, broth dilution). The class given is cell-based. The following applies: CLSI. How it is done: (§1) Determination of the Minimal Inhibitory Concentrations (MIC) by dilution was carried out by broth dilution according to CLSI standards.
The subject of the next data set is E. aerogenes ATCC 13048. As to the kind of experiment: Antibacterial activity (MIC, broth dilution). The class given is cell-based. As to conditions: CLSI. Here is the method:
as §1

Data set [2] relates to K. pneumoniae NR-15410 (KPC). Nature of the data set: Antibacterial activity (MIC, broth dilution). The class given is cell-based. As to conditions: CLSI. Here is the method:
as §1

Data set [3] deals with S. aureus HFH-30123 (MRSA). Nature of the data set: Antibacterial activity (MIC, broth dilution). The class given is cell-based. As to conditions: CLSI. Here is the method:
as §1

The subject of a further data set is S. aureus MRSA 1094. Nature of the data set: Antibacterial activity (MIC, broth dilution). As to conditions: CLSI. The class given is cell-based. Here is the method:
as §1

Another data set has as its system E. cloacae ATCC 13047. Nature of the data set: Antibacterial activity (MIC, broth dilution). The class given is cell-based. The following applies: CLSI. Here is the method: as §1
The test system of the next data set is P. aeruginosa X13273. Nature of the data set: Antibacterial activity (MIC, broth dilution). The class given is cell-based. The following applies: CLSI, in µg/mL. Here is the method: as §1
The next data set relates to P. aeruginosa PA01. Nature of the data set: Antibacterial activity (MIC, broth dilution). The class given is cell-based. As to conditions: CLSI. Here is the method:
as §1

The subject of a further data set is E. faecalis EF1509. Nature of the data set: MIC for the strain used in macromolecular synthesis assays. The following applies: Enterococcus faecalis. The class given is cell-based. How it is done:
as §1
The effect of compounds on the macromolecular synthetic pathways of E. faecalis EF1509 were measured as follows: Cells were grown at 35°C overnight on Tryptic Soy Agar Broth (Remel, Lenexa, KS), and growth from the plate was used to inoculate 15 ml of Mueller Hinton Broth. The culture was grown to early exponential growth phase (OD600 = 0.2 to 0.3) while incubating in a shaker at 35°C and 150 rpm. For each macromolecular assay, the test agents were added at either 0, 0.25, 0.5, 1, 2, or 4, -fold their respective MIC values for E. faecalis EF1509.

Data set [4] is described as follows: Plasma stability (50% serum, LC/MS/MS). The class given is in vitro ADME. Here is the method:
Samples were taken after 2 min, 5min, 15min, 30min, 1h, 2h and 19h. Stability of compound was quantified by LC/MS/MS. Experiments were carried out by Pharmaron, Inc., (Beijing, China).

Data set [5] has as its system cell wall synthesis in E. faecalis EF1509. Nature of the data set: Macromolecular synthesis assay: cell wall synthesis. The class given is cell-based. The following applies: Enterococcus faecalis; E. faecalis EF1509, [14C] N-acetyl-glucosamine incorporation; read-out: IC50 inhibition of cell wall synthesis. Here is the method:
The effect of compounds on the macromolecular synthetic pathways of E. faecalis EF1509 were measured as follows: Cells were grown at 35°C overnight on Tryptic Soy Agar Broth (Remel, Lenexa, KS), and growth from the plate was used to inoculate 15 ml of Mueller Hinton Broth. The culture was grown to early exponential growth phase (OD600 = 0.2 to 0.3) while incubating in a shaker at 35°C and 150 rpm. For each macromolecular assay, the test agents were added at either 0, 0.25, 0.5, 1, 2, or 4, -fold their respective MIC values for E. faecalis EF1509. […] For cell wall synthesis, bacterial cells in early exponential growth phase were transferred to M9 minimal medium and added to 1.5 ml eppendorf tubes (100 μl/tube) containing various concentrations of test compound or control antibiotics (2.5 μl) at 40X the final concentration in 100% DMSO as described above. Following a 5 min incubation at 37°C, [^14C] N-acetyl-glucosamine (0.4 μCi/reaction) was added to each tube and incubated for 45 min in a 37°C heating block. Reactions were stopped through the addition of 100 μl of 8% SDS to each tube. […] After washing three times with 5 ml of 0.1% SDS, the filters were rinsed two times with 5 ml of deionized water, allowed to dry, and then counted using a Beckman LS3801 liquid scintillation counter.

Data set [6] is described as follows: Plasma protein binding (Transil). The class given is in vitro ADME. The following applies: human, TRANSIL XL PPB plates (human plasma protein beads). How it is done:
Human plasma protein binding was determined using TRANSIL^XL PPB plates (Sovicell, Leipzig, Germany). The compound 6jc48-1 (15 ul, 32% DMSO stock solution) was added to each well of a column (8 wells total) on a room temperature equilibrated plate. The plate was incubated for twelve minutes on a shaker at 1000 rpm then centrifuged for 10 minutes at 750 × g to sediment the beads from the suspension. Aliquots (100 ul) were transferred from the supernatants to 96-well plate for MS analysis. Plasma protein binding data analysis was completed by using the supplied spreadsheet from the manufacturer (Sovicell, User Guide TRANSIL PPB binding kit V2.01, 2013).

Molecules are shown by their SMILES. Where only a bound is given, the exact number is not on record here.

The compound `CN(C)c1ccc(/C=C/c2cc(-c3ccc(Br)cc3)cc(-c3ccc(Br)cc3)[o+]2)cc1` [6jc48-1] displayed an Antibacterial activity (MIC) K. pneumoniae NR-15411 (KPC) in [1] of at least 64 µg/mL. Besides, the Antibacterial activity (MIC) E. aerogenes ATCC 13048 in the data set with E. aerogenes ATCC 13048 is at least 64 µg/mL. Also, the Antibacterial activity (MIC) K. pneumoniae NR-15410 (KPC) in data set [2] is at least 64 µg/mL. Moreover, the Antibacterial activity (MIC) S. aureus HFH-30123 (MRSA) in data set [3] stood at 32 µg/mL. For the same compound, the Antibacterial activity (MIC) S. aureus MRSA 1094 in the data set with S. aureus MRSA 1094 worked out at 32 µg/mL. The compound also displayed an Antibacterial activity (MIC) E. cloacae ATCC 13047 in the data set with E. cloacae ATCC 13047 of at least 64 µg/mL. Besides, the “Antibacterial activity (MIC) P. aeruginosa X13273” value with P. aeruginosa X13273 is “>=64”. Besides, the Antibacterial activity (MIC) P. aeruginosa PA01 with P. aeruginosa PA01 is at least 64 µg/mL. In the data set on E. faecalis EF1509, this compound had an MIC of 4 µg/mL. In data set [4] (after 2 hours), the Stability in serum result was “fully stable after 2 hours in serum”. In [4] (after 19h, 10 μg/ml), the “Compound remaining in serum” value came out at 46%. For the same compound, the half-inhibitory concentration (IC50) in data set [5] was 3.8 µg/mL. The compound further had a fraction unbound at 12 min in data set [6] of 0.11.
Take `CN1/C(=C/C=C/c2cc(-c3ccccc3)cc(-c3ccccc3)[o+]2)C(C)(C)c2ccccc21` [BAS-00127538, (1-Methyl-2,4-diphenyl-6-((1E,3E)-3-(1,3,3-trimethylindolin-2-ylidene)prop-1-en-1-yl)pyryl-1-ium) tetrafluoroborate, reference compound]: the Antibacterial activity (MIC) K. pneumoniae NR-15411 (KPC) in [1] turned out to be 16 µg/mL. Further, the Antibacterial activity (MIC) E. aerogenes ATCC 13048 in the data set on E. aerogenes ATCC 13048 is 16 µg/mL. The same compound had an Antibacterial activity (MIC) K. pneumoniae NR-15410 (KPC) in data set [2] of 8 µg/mL. This compound had an Antibacterial activity (MIC) S. aureus HFH-30123 (MRSA) in data set [3] of 0.5 µg/mL. Moreover, in the data set on S. aureus MRSA 1094, the Antibacterial activity (MIC) S. aureus MRSA 1094 was 0.5 µg/mL. This compound also had an Antibacterial activity (MIC) E. cloacae ATCC 13047 in the data set on E. cloacae ATCC 13047 of 32 µg/mL. Further, the “Antibacterial activity (MIC) P. aeruginosa X13273” value in the data set with P. aeruginosa X13273 is “>=64”. In the data set on P. aeruginosa PA01, this compound showed an Antibacterial activity (MIC) P. aeruginosa PA01 of 64 µg/mL. In the data set on E. faecalis EF1509, this compound showed a minimum inhibitory concentration (MIC) of 2 µg/mL. Moreover, in data set [5], the IC50 was found to be 1.1 µg/mL.
